Source: patent US6790859B2, “Reversing advanced glycosylation cross-links using heterocyclic-substituted thiazolium compounds” (Alteon Incorporated, priority 1998, dated 2004)

How the values were obtained:
[1] = test system: AGE-BSA cross-linked to rat tail tendon collagen (type 1); test: Reversing collagen cross-links: AGE-BSA cross-linked to rat tail tendon collagen-coated plates; assay type: biochemical; conditions: 3 mM test compound, overnight at 37° C.
Description: In a further evaluation of the ability of compounds of the present invention to reverse AGE cross-links between a circulating protein and collagen, AGE-BSA was cross-linked to rat tail tendon collagen (type 1)-coated 96 well microtiter plates, and reversal of cross-linking was determined.
AGE-BSA preparation. AGE-BSA is prepared by incubation of a solution of BSA (400 mg/ml) in 0.4 M sodium phosphate buffer pH 7.4 with an equal volume of 400 mM glucose solution in the same buffer at 37° C. for 12 weeks. The pH of the incubation mixture is monitored weekly and adjusted to pH 7.4 if necessary. After 12 weeks, the AGE-BSA solution is dialyzed against PBS for 48 hours with 4 buffer changes. Protein concentration is determined by the micro-Lowry method.
Assay protocol. […] AGE-BSA was diluted in PBS to a concentration required to obtain maximum cross-linking as determined in a preliminary experiment. […]
Test compounds are dissolved in PBS and pH adjusted to 7.0 if necessary. […] The test compounds and PBS are also added to triplicate wells incubated with BSA, to obtain the blank readings. […]
The plate is washed with PBS-Tween, […] of Rabbit-anti-BSA antibody (1 to 4000 in PBS) is added to each well and the plate is incubated at room temperature for 60 min. […] Optical density is read at 410 nm with the sample filter set to “1” and the reference filter set to “5” on the Dynatech ELISA plate reader. […]

[2] = test system: IgG bound to the surface of RBC (AGE cross-links); test: Reversing AGE cross-links: RBC-IgG assay (IgG bound to RBC from streptozotocin-diabetic rats); assay type: cell-based, rat; conditions: RBC of streptozotocin-diabetic rats incubated with test compound in PBS overnight at 37° C.; concentration not given
Description: The activity of the compounds of the present invention to reverse AGE cross-links was evaluated in an in-vitro model, as follows. Blood was collected from streptozotocin-diabetic rats (6 to 8 wk diabetic) in heparinized tubes, centrifuged at 2500×g for 15 min. at […], and the plasma and buffy-coat layers aspirated off. The RBC were washed with PBS (ca. 5 ml PBS per ml blood) three times. Test compounds were dissolved in PBS and the pH adjusted to 7.0, if necessary. Two hundred microliters of washed RBC were added to 2 mL of test compound solution, and the mixture was incubated overnight at 37° C. […] After the overnight incubation, the reaction mixtures were centrifuged and the RBC pellets were washed three times with PBS, followed by diluting 1:30 in PBS. Immunoglobulin G (IgG) bound to the surface of the washed RBCs was then determined. Assay for RBC-IgG: The assay is performed in a Multiscreen-HA, 0.45 μm cellulose mixed esters membrane-sealed 96 well plate (Millipore MAHAS45). The membranes are first wet by filling the wells with 100 uL PBS, and the wells emptied by applying a vacuum to the Millititer vacuum manifold. Three hundred uL of Superblock (pre-warmed to 37° C.) is then added to each well and incubated at 37° C. for one hour. The Superblock is then removed from the wells by application of vacuum, then the wells are washed once with 300 ul of PBS-Tween (0.05%) and three times with PBS. The vacuum is then turned off. One hundred μl of PBS is then added to each well. Each RBC sample is gently vortexed, and 50 uL pipetted into the wells, in sextuplicate. The wells labeled A1-A3 are left for a reagent blank and wells A4-A6 reserved for an antibody blank. Vacuum is then applied to remove the buffer and the RBCs are washed once with PBS. Alkaline phosphatase-labeled rabbit-anti-rat IgG is diluted 1 to 25000 in PBS, and 50 μl is added to triplicate wells of each sample. PBS alone is added to the other three wells of each sample. These will serve as sample blanks to adjust for any endogenous alkaline phosphatase activity. The samples are allowed to stand at room temperature for two hours. The solution is then removed by application of vacuum and the red blood cells are washed with PBS-Tween twice, PBS twice and with TBS twice. The bottom of the plate is rinsed with distilled water and blotted dry with paper towels. To each well is then added 100 μl of p-nitrophenyl phosphate substrate (1 mg/ml in diethanolamine buffer pH 9.5), and the color is allowed to develop for two hours at 37° C. The solutions in each well are then transferred to a 96 well microtiter plate inside the vacuum manifold. One hundred μl of PBS to each well and vacuum applied again to transfer any remaining solution into the microtiter plate. The OD at 410 nm is then read in a Dynatech Plate reader (Sample filter 1 and Ref. filter 4). For data analysis, breaking activity (percent reversal) is expressed as the percent decrease in O.D. caused by incubation of RBC with the test compound compared to RBC incubated in PBS alone. Using the above assay, the following data was generated on the compounds of the present invention: […]

Structure (SMILES)	reversal of AGE cross-links (percent breaking, decrease in OD of TTC-AGE-BSA wells vs PBS) [1]	Percent reversal (breaking activity: percent decrease in O.D. vs RBC incubated in PBS alone) [2]
O=C(C[n+]1ccsc1)c1cc(-c2ccccc2)no1.[Br-] [3-[2-(3-phenyl-5-isoxazolyl)-2-oxoethyl]-thiazolium bromide]	15%	38%
Cc1sc[n+](CC(=O)N2CCSCC2)c1C.[Br-] [3-(2-(4-thiomorpholinyl)-2-oxoethyl)-4,5-dimethylthiazolium bromide]		47%
Cc1sc[n+](CC(=O)N2CCCCC2)c1C.[Br-] [3-(2-(1-piperidinyl)-2-oxoethyl)-4,5-dimethylthiazolium bromide]		37%
Cc1sc[n+](CC(=O)N2CCC(Cc3ccccc3)CC2)c1C.[Cl-] [3-[2-(4-benzyl-1-piperidinyl)-2-oxoethyl]-4,5-dimethylthiazolium chloride]		70%
Cc1sc[n+](CC(=O)N2CC(C)OC(C)C2)c1C.[Br-] (stereo not drawn) [3-[2-(2,6-dimethyl-4-morpholinyl)-2-oxoethyl]-4,5-dimethylthiazolium bromide]		38%
Cc1c(CCO)sc[n+]1CC(=O)c1cccs1.[Br-] [3-(2-(2-thienyl)-2-oxoethyl)-4-methyl-5-hydroxyethylthiazolium bromide]		24%
Cc1sc[n+](CC(=O)c2ccccn2)c1C.[Br-] [3-(2-(2-pyridinyl)-2-oxoethyl)-4,5-dimethyl-thiazolium bromide]		27%
Cc1sc[n+](CC(=O)c2cccs2)c1C.[Br-] [3-(2-(2-thienyl)-2-oxoethyl)-4,5-dimethyl-thiazolium bromide]		53%
Cc1sc[n+](CC(=O)c2ccc3c(c2)CCC(=O)N3)c1C.[Br-] [3-[2-(2-oxo-1,2,3,4-tetrahydro-6-quinolinyl)-2-oxoethyl]-4,5-dimethylthiazolium bromide]		84%
Cc1sc[n+](CC(=O)c2ccco2)c1C.[Br-] [3-(2-(2-furanyl)-2-oxoethyl)-4,5-dimethylthiazolium bromide]		76%
Cc1sc[n+](CC(=O)N2CCCC2)c1C.[Br-] [3-(2-(1-pyrrolidinyl)-2-oxoethyl)-4,5-dimethyl-thiazolium bromide]		63%
